Assay [1] deals with microorganisms. The assay can be described thus: Peptides having multiple activities (targeting/binding, antimicrobial, growth or phenotype altering). From the text:
In certain embodiments, peptides described herein can have multiple activities. Thus for example, a peptide can have both binding/targeting activity and antimicrobial activity. Such peptides can be used, e.g., in a chimeric construct, for any or all of these properties. Thus, for example, a peptide designated “B” in Table 8 can be used as a targeting peptide. If it is also designated G or M it can also be used for antimicrobial activity.

Assay [2] relates to microorganisms (e.g., bacteria, yeasts, fungi). Description: Targeting peptide binding to target microorganisms (Table 3). The note with it: preferably 1x PBS; for Target(s) (microorganisms bound by the targeting peptide): peptide binding in aqueous buffers varied by peptide solubility.
Assay [3] relates to S. epidermidis. Description: Kill or inhibit growth/proliferation; morphology, biofilm and growth disruption (Tables 5, 6). Further: test concentration or dose not given here. Set-up: key: A: Peptide aggregates; B: Less hyphal formation; Clumps; Diffuse clumps and small polyps; F: Diffuse growth; H: Thin; I: Growth inhibition; Microcolony formation; Rippled; Small polyps; Thick; W: Halo formation on top, microlonies on bottom. The assay is classed as cell-based, Staphylococcus epidermidis.

In assay [4] the test system is S. pneumoniae. The description is as above. In kind it is cell-based, Streptococcus pneumoniae. On the set-up: key: A: Peptide aggregates; B: Less hyphal formation; Clumps; Diffuse clumps and small polyps; F: Diffuse growth; H: Thin; I: Growth inhibition; Microcolony formation; Rippled; Small polyps; Thick; W: Halo formation on top, microlonies on bottom.
In assay [5] the test system is MRSA. Described as above. The assay is classed as cell-based, Methicillin-resistant Staphylococcus aureus. Set-up: key: A: Peptide aggregates; B: Less hyphal formation; Clumps; Diffuse clumps and small polyps; F: Diffuse growth; H: Thin; I: Growth inhibition; Microcolony formation; Rippled; Small polyps; Thick; W: Halo formation on top, microlonies on bottom.
[6] abbreviates: microorganism(s) the targeting peptide binds, binding in aqueous buffers depending on peptide solubility.
[7] abbreviates: microorganism(s) the targeting peptide binds, peptide binding conducted in aqueous buffers varied by peptide solubility.
Setting [8] is: microorganism the targeting peptide binds, binding in aqueous buffers varied by peptide solubility.

Entries after “also recorded” stand apart in the source; their conditions may differ.
Wherever Organism, effect (morphology, biofilm and growth disruption) is given: test concentration or dose not given here.
Wherever Organism, effect is given: test concentration or dose not given here.

In the case of “PF-192: peptide having multiple activities (VEEDEAPPPHY; Peptide with targeting and/or antimicrobial activity)”, in assay [1], the Activities entry is “G B”. Also, in assay [2] (setting [6]), the “Target(s)” value is on record as “S. epidermidis; also recorded: M. luteus; also recorded: P. aeruginosa; also recorded: C. albicans; also recorded: E. faecalis; also recorded: C. jeikeium”. Further, the “Organism, effect” value in assay [3] was “S. epidermidis (D)”.

In the case of “PF-157: peptide having multiple activities (HTAVVWLAGVSGCVALSHCEPA; Peptide with targeting and/or antimicrobial activity)”, the Activities result in assay [1] was “G B”. In assay [3], the “Organism, effect” value is “S. epidermidis (M)”.

“PF-694 (chain 1 DLIRPLYSMSAPSVA; chain 2 DLIRPLYSMSAPSVA; Peptide with targeting and/or antimicrobial activity)”: the “Target(s) (microorganisms bound by the targeting peptide)” value in assay [2] was “Mycobacteria spp”. In addition, the “Organism, effect (morphology, biofilm and growth disruption)” value in assay [4] is reported as “S. pneumoniae (A)”; in assay [5], “MRSA (R)”.

For the substance “PF-293 (YDPLK; Peptide with targeting and/or antimicrobial activity)”, the “Organism, effect” value in assay [3] is “S. epidermidis (C)”.

In the case of “PF-310 (GVALIGTILVPLLSGLFG; Peptide with targeting and/or antimicrobial activity)”, the “Organism, effect” value in assay [3] is “S. epidermidis (C)”.

As for “PF-123: peptide having multiple activities (TTRPQVAEDRQLDDALKETFPASDPISP; Peptide with targeting and/or antimicrobial activity)”, the Activities result in assay [1] is “G B”. In addition, in assay [2] (setting [6]), the “Target(s)” value is listed as “M. luteus; also recorded: E. coli”. In addition, the “Organism, effect” value in assay [3] is “S. epidermidis (M)”.

In the case of “PF-290 (MVHDMTNGTLIIVKH; Peptide with targeting and/or antimicrobial activity)”, the “Organism, effect” value in assay [3] was “S. epidermidis (C)”.

Take “PF-539: peptide having multiple activities (chain 1 SIILTKKKRRKIPLSIDSQIYKYTFKQ; chain 2 SIILTKKKRRKIPLSIDSQIYKYTFKQ; Peptide with targeting and/or antimicrobial activity)”: the Activities result in assay [1] is listed as “G B”. For the same substance, the “Organism, effect” value in assay [4] is recorded as “S. pneumoniae (A)”; in assay [5] it was “MRSA (H)”.

On to “PF-233: peptide having multiple activities (DANAMARTTIAIVYILALIALTISYSL; Peptide with targeting and/or antimicrobial activity)”, for which the Activities entry in assay [1] is on record as “G B”. The “Target(s)” value in assay [2] (setting [6]) is “S. epidermidis; also recorded: M. luteus; also recorded: P. aeruginosa; also recorded: A. baumannii”. The “Organism, effect” value in assay [3] is “S. epidermidis (C)”.

For “PF-658 (chain 1 PTTPPPTTPPEIPTGGTVIST; chain 2 PTTPPPTTPPEIPTGGTVIST; Peptide with targeting and/or antimicrobial activity)”, the “Target(s) (microorganisms bound by the targeting peptide)” value in assay [2] was “Mycobacteria spp”. Further, the “Organism, effect (morphology, biofilm and growth disruption)” value in assay [4] was “S. pneumoniae (H)”; in assay [5], “MRSA (R)”.

Regarding “PF-273: peptide having multiple activities (LVGALLIFVALIYMVLKGNADKN; Peptide with targeting and/or antimicrobial activity)”, the Activities entry in assay [1] is “G B”. Further, in assay [2] (setting [6]), the “Target(s)” value is recorded as “S. epidermidis; also recorded: M. luteus; also recorded: P. aeruginosa; also recorded: A. baumannii”. Moreover, the “Organism, effect” value in assay [3] is “S. epidermidis (C)”.

For MQIFYIKTKIFLSFFLFLLIFSQCFYKIEE [PF-442], the Activities entry in assay [1] is “G B”. In assay [2] (setting [7]), the “Target(s)” value was “S. epidermidis; also recorded: E. coli; also recorded: C. albicans; also recorded: S. pneumoniae; also recorded: E. faecalis”. Also, the entries for the “Organism, effect” value in assay [4] and in assay [5] were “S. pneumoniae (C)” and “MRSA (M)”, respectively.

“PF-294: peptide having multiple activities (DFLVNFLWFKGELNWGKKRYK; Peptide with targeting and/or antimicrobial activity)”: the Activities entry in assay [1] was “G B”. Besides, in assay [2] (setting [6]), the “Target(s)” value is “S. epidermidis; also recorded: C. difficile”. Further, the “Organism, effect” value in assay [3] was “S. epidermidis (C)”.

“PF-397: peptide having multiple activities (VEDLMEDLNA; Peptide with targeting and/or antimicrobial activity)”: the Activities entry in assay [1] is on record as “G B”. Also, in assay [2] (setting [7]), the “Target(s)” value was “S. epidermidis and MRSA and S. pneumoniae and E. faecalis and C. jejuni”. For the same substance, in assay [3], the “Organism, effect” value is “S. epidermidis (C)”.

For the substance “PF-034: peptide having multiple activities (chain 1 EPKKKHFPKMESASSEP; chain 2 EPKKKHFPKMESASSEP; Peptide with targeting and/or antimicrobial activity)”, the Activities entry in assay [1] is “G B”. In addition, in assay [2] (setting [8]), the “Target(s)” value is “M. luteus”. In addition, in assay [3], the “Organism, effect” value is listed as “S. epidermidis (A)”.

As for “PF-313: peptide having multiple activities (YITSHKNARAIIKKFERDEILEEVITHYLNRK; Peptide with targeting and/or antimicrobial activity)”, in assay [1], the Activities result was “G B”. Also, the “Target(s)” value in assay [2] (setting [6]) is recorded as “S. epidermidis; also recorded: C. difficile”. In addition, the “Organism, effect” value in assay [3] is recorded as “S. epidermidis (C)”.

Take “PF-009: peptide having multiple activities (chain 1 SKKYNHILNQENR; chain 2 SKKYNHILNQENR; Peptide with targeting and/or antimicrobial activity)”: the Activities entry in assay [1] was “G B”. In addition, the “Target(s)” value in assay [2] (setting [8]) is on record as “M. luteus; also recorded: P. mirabilis; also recorded: C. albicans”. For the same substance, in assay [3], the “Organism, effect” value is on record as “S. epidermidis (S)”.

“PF-764: peptide having multiple activities (GYFEPGKRD; Peptide with targeting and/or antimicrobial activity)”: in assay [1], the Activities result was “G B”. For the same substance, the “Target(s) (microorganisms bound by the targeting peptide)” value in assay [2] is “S. epidermidis and M. luteus and C. albicans and MRSA and S. pneumoniae and E. faecalis and C. jeikeium”. In addition, the “Organism, effect (morphology, biofilm and growth disruption)” value is listed as “S. pneumoniae (H)” in assay [4] and “MRSA (D)” in assay [5].

“PF-045: peptide having multiple activities (chain 1 LDINDYRSTY; chain 2 LDINDYRSTY; Peptide with targeting and/or antimicrobial activity)”: the Activities result in assay [1] is on record as “G B”. In addition, the “Target(s)” value in assay [2] (setting [8]) was “S. epidermidis; also recorded: E. coli; also recorded: E. faecalis; also recorded: C. jejuni”. In addition, the “Organism, effect” value in assay [5] was “MRSA (S)”.

Regarding “PF-180: peptide having multiple activities (SGLGDLGFSSEAK; Peptide with targeting and/or antimicrobial activity)”, in assay [1], the Activities result was “G B”. The “Target(s)” value in assay [2] (setting [6]) was “S. epidermidis and M. luteus and P. aeruginosa and C. albicans and MRSA and E. faecalis and C. jejuni and M. smegmatis”. The “Organism, effect” value in assay [3] is “S. epidermidis (C)”.

The record behind these values is patent publication US20110039762A1, “TARGETED ANTIMICROBIAL MOIETIES” (C3 JIAN, INC., priority 2009, published 2011).
